In one assay the test system is P-Akt (S473). Briefly: Cell based AlphaLISA assay, inhibition of P-Akt (S473) in MDA-MB-468 cells (mTORC2 substrate). The settings on record: AlphaLisa, two to four hours at 37° C.; for IC50: Homo sapiens, 4 h, read-out: pIC50 for Inhibition of mTORC1 and mTORC2 Substrate Phosphorylation p-AKT1/2/3-(S473) (converted). The protocol:
(§1) Cell Based AlphaLISA Assays For Determining IC50 For Inhibition of P-Akt (S473), P-4E-BP1(T37/46), and P-P70S6K (T389) in MDA-MB-468 Cells
(§2) mTOR Kinase Cellular Assay
(§3) To measure functional activity of mTORC1 and mTORC2 in cells the phosphorylation of 4EBPT (Thr37/46) and P70S6K (Thr389), and AKT1/2/3 (Ser473) was monitored using AlphaLisa SureFire Ultra Kits (Perkin Elmer). […] Incubations were terminated by removal of the assay buffer and addition of lysis buffer provided with the assay kit. Samples were processed according to the manufacturer's instructions. The Alpha signal from the respective phosphoproteinswas measured in duplicate using a microplate reader (Envision, Perkin-Elmer or Spectramax M5, Molecular Devices). Inhibitor concentration response curves were analyzed using normalized IC50 regression curve filling with control based normalization.
(In Alpha technology, singlet oxygen from a donor bead excites a nearby acceptor bead.)

The next assay concerns P-4E-BP1 (T37/46). Briefly: Cell based AlphaLISA assay, inhibition of P-4E-BP1 (T37/46) in MDA-MB-468 cells (mTORC1 substrate). The settings on record: AlphaLisa, two to four hours at 37° C.; for IC50: Homo sapiens, 4 h, read-out: pIC50 for Inhibition of mTORC1 and mTORC2 Substrate Phosphorylation P-4E-BP1-(T37/46) (converted). The protocol: as §1, §2, §3
Another assay has as its system P-P70S6K (T389). In words: Cell based AlphaLISA assay, inhibition of P-P70S6K (T389) in MDA-MB-468 cells (mTORC1 substrate). The settings on record: AlphaLisa, two to four hours at 37° C.; for IC50: Homo sapiens, 4 h, read-out: pIC50 for Inhibition of mTORC1 and mTORC2 Substrate Phosphorylation p-P70S6K-(T389) (converted). The protocol:
as §1, §2, §3

Regarding `CO[C@H]1C[C@@H]2CC[C@@H](C)[C@@](O)(O2)C(=O)C(=O)N2CCCC[C@H]2C(=O)O[C@H]([C@H](C)C[C@@H]2CC[C@@H](OC(=O)NC3CCN(CC(=O)NCCOCCOCCOCCOCCOCCOCCC(=O)N4CCc5cc(Cn6nc(-c7ccc8oc(N)nc8c7)c7c(N)ncnc76)ccc5C4)CC3)[C@H](OC)C2)C[C@@H](O)[C@H](C)/C=C(\C)[C@@H](O)[C@@H](OC)C(=O)[C@H](C)C[C@H](C)/C=C/C=C/C=C/1C` [Example 98], the figures for the IC50 in the assay on P-Akt (S473), in the assay on P-4E-BP1 (T37/46) and in the assay with P-P70S6K (T389) were 3.16 to 31.6 nM, less than 3.16 nM and less than 1 nM, respectively.

Consider `CO[C@H]1C[C@@H]2CC[C@@H](C)[C@@](O)(O2)C(=O)C(=O)N2CCCC[C@H]2C(=O)O[C@H]([C@H](C)C[C@@H]2CC[C@@H](OC(=O)NCc3cnc(N4CCN(c5ncc(C(=O)N(C)CCOCCOCCOCCOCCC(=O)N6CCc7cc(Cn8nc(-c9ccc%10oc(N)nc%10c9)c9c(N)ncnc98)ccc7C6)c(N)n5)CC4)nc3)[C@H](OC)C2)C[C@@H](OC)[C@H](C)/C=C(\C)[C@@H](O)[C@@H](OC)C(=O)[C@H](C)C[C@H](C)/C=C/C=C/C=C/1C` [Example 95], for which the IC50 was 3.16 to 31.6 nM in the assay with P-Akt (S473), less than 3.16 nM in the assay with P-4E-BP1 (T37/46) and less than 1 nM in the assay on P-P70S6K (T389).

For the compound `CO[C@H]1C[C@@H]2CC[C@@H](C)[C@@](O)(O2)C(=O)C(=O)N2CCCC[C@H]2C(=O)O[C@H]([C@H](C)C[C@@H]2CC[C@@H](OC(=O)NCc3cnc(N4CCN(c5ncc(C(=O)NCCOCCOCCOCCOCCC(=O)N6CCc7cc(Cn8nc(-c9cnc%10[nH]ccc%10c9)c9c(N)ncnc98)ccc7C6)c(N)n5)CC4)nc3)[C@H](OC)C2)CC(=O)[C@H](C)/C=C(\C)[C@@H](O)[C@@H](OC)C(=O)[C@H](C)C[C@H](C)/C=C/C=C/C=C/1C` [Example 96], the IC50 is 31.6 to 1000 nM in the assay on P-Akt (S473), less than 3.16 nM with P-4E-BP1 (T37/46) and less than 1 nM with P-P70S6K (T389).

Consider `CO[C@H]1C[C@@H]2CC[C@@H](C)[C@@](O)(O2)C(=O)C(=O)N2CCCC[C@H]2C(=O)O[C@H]([C@H](C)C[C@@H]2CC[C@@H](OC(=O)N3CCc4nc(N5CCN(c6ncc(C(=O)N7CCN(c8ncc(C(=O)N9CCc%10cc(Cn%11nc(-c%12cnc%13oc(N)nc%13c%12)c%12c(N)ncnc%12%11)ccc%10C9)cn8)CC7)cn6)CC5)ncc4C3)[C@H](OC)C2)CC(=O)[C@H](C)/C=C(\C)[C@@H](O)[C@@H](OC)C(=O)[C@H](C)C[C@H](C)/C=C/C=C/C=C/1C` [Example 62], for which the “pIC50 for Inhibition of mTORC1 and mTORC2 Substrate Phosphorylation p-AKT1/2/3-(S473)” value with P-Akt (S473) is given as “− (<6)”. In addition, the “pIC50 for Inhibition of mTORC1 and mTORC2 Substrate Phosphorylation P-4E-BP1-(T37/46)” value in the assay with P-4E-BP1 (T37/46) is “− (<6)”. Also, the “pIC50 for Inhibition of mTORC1 and mTORC2 Substrate Phosphorylation p-P70S6K-(T389)” value with P-P70S6K (T389) is “++ (9 > pIC50 ≥ 8)”.

Regarding `CO[C@H]1C[C@@H]2CC[C@@H](C)[C@@](O)(O2)C(=O)C(=O)N2CCCC[C@H]2C(=O)O[C@H]([C@H](C)C[C@@H]2CC[C@@H](OC(=O)NCc3cnc(N4CCN(C(=O)CCOCCN5CCN(C(=O)CCC(=O)N6CCc7cc(Cn8nc(-c9ccc%10oc(N)nc%10c9)c9c(N)ncnc98)ccc7C6)CC5)CC4)nc3)[C@H](OC)C2)C[C@@H](OC)[C@H](C)/C=C(\C)[C@@H](O)[C@@H](OC)C(=O)[C@H](C)C[C@H](C)/C=C/C=C/C=C/1C` [Example 133], the IC50 in the assay with P-Akt (S473) was 3.16 to 31.6 nM; with P-4E-BP1 (T37/46) it was less than 3.16 nM; with P-P70S6K (T389), less than 1 nM.

Regarding `CO[C@H]1C[C@@H]2CC[C@@H](C)[C@@](O)(O2)C(=O)C(=O)N2CCCC[C@H]2C(=O)O[C@H]([C@H](C)C[C@@H]2CC[C@@H](OC(=S)NCCOCCOCCOCCOCCOCCOCCOCCOCCC(=O)N3CCc4cc(Cn5nc(-c6ccc7oc(N)nc7c6)c6c(N)ncnc65)ccc4C3)[C@H](OC)C2)C[C@@H](O)[C@H](C)/C=C(\C)[C@@H](O)[C@@H](OC)C(=O)[C@H](C)C[C@H](C)/C=C/C=C/C=C/1C` [Example 77], the “pIC50 for Inhibition of mTORC1 and mTORC2 Substrate Phosphorylation p-AKT1/2/3-(S473)” value with P-Akt (S473) is reported as “+ (7.5 > pIC50 ≥ 6.0)”. Also, the “pIC50 for Inhibition of mTORC1 and mTORC2 Substrate Phosphorylation P-4E-BP1-(T37/46)” value in the assay on P-4E-BP1 (T37/46) was “++ (8.5 > pIC50 ≥ 7.5)”. For the same compound, the “pIC50 for Inhibition of mTORC1 and mTORC2 Substrate Phosphorylation p-P70S6K-(T389)” value with P-P70S6K (T389) was “+++ (≥9)”.

In the case of `CO[C@H]1C[C@@H]2CC[C@@H](C)[C@@](O)(O2)C(=O)C(=O)N2CCCC[C@H]2C(=O)O[C@H]([C@H](C)C[C@@H]2CC[C@@H](OC(=O)NC3CCN(CC(=O)NCCOCCOCCOCCOCCOCCOCCC(=O)N4CCc5cc(Cn6nc(-c7ccc8oc(N)nc8c7)c7c(N)ncnc76)ccc5C4)CC3)[C@H](OC)C2)C[C@@H](OC)[C@H](C)/C=C(\C)[C@@H](O)[C@@H](OC)C(=O)[C@H](C)C[C@H](C)/C=C/C=C/C=C/1C` [Example 99], the IC50 in the assay on P-Akt (S473) was more than 1000 nM; in the assay on P-4E-BP1 (T37/46), less than 3.16 nM; in the assay with P-P70S6K (T389) it was less than 1 nM.

As to `CO[C@H]1C[C@@H]2CC[C@@H](C)[C@@](O)(O2)C(=O)C(=O)N2CCCC[C@H]2C(=O)O[C@H]([C@H](C)C[C@@H]2CC[C@@H](OC(=O)NCc3cnc(N4CCN(C(=O)CCOCCN5CCN(c6ncc(C(=O)N7CCc8cc(Cn9nc(-c%10ccc%11oc(N)nc%11c%10)c%10c(N)ncnc%109)ccc8C7)cn6)CC5)CC4)nc3)[C@H](OC)C2)C[C@@H](OC)[C@H](C)/C=C(\C)[C@@H](O)[C@@H](OC)C(=O)[C@H](C)C[C@H](C)/C=C/C=C/C=C/1C` [Example 114], the IC50 with P-Akt (S473) was more than 1000 nM; with P-4E-BP1 (T37/46), less than 3.16 nM; with P-P70S6K (T389), less than 1 nM.

As for `CO[C@H]1C[C@@H]2CC[C@@H](C)[C@@](O)(O2)C(=O)C(=O)N2CCCC[C@H]2C(=O)O[C@H]([C@H](C)C[C@@H]2CC[C@@H](OC(=O)NCc3cnc(N4CCN(c5ncc(C(=O)NCCOCCC(=O)N6CCN(c7ncc(C(=O)NCCCCn8nc(-c9ccc%10oc(N)nc%10c9)c9c(N)ncnc98)cn7)CC6)cn5)CC4)nc3)[C@H](OC)C2)CC(=O)[C@H](C)/C=C(\C)[C@@H](O)[C@@H](OC)C(=O)[C@H](C)C[C@H](C)/C=C/C=C/C=C/1C` [Example 111], the IC50 was more than 1000 nM in the assay on P-Akt (S473), less than 3.16 nM in the assay with P-4E-BP1 (T37/46) and less than 1 nM in the assay with P-P70S6K (T389).

On to `CO[C@H]1C[C@@H]2CC[C@@H](C)[C@@](O)(O2)C(=O)C(=O)N2CCCC[C@H]2C(=O)O[C@H]([C@H](C)C[C@@H]2CC[C@@H](OC(=O)NCCOCCOCCOCCOCCOCCOCCOCCOCCC(=O)NCCS(=O)(=O)c3ccc(C(=O)N4CCOc5ccc(-c6ccc(N)nc6)cc5C4)c(C)c3)[C@H](OC)C2)C[C@@H](OC)[C@H](C)/C=C(\C)[C@@H](O)[C@@H](OC)C(=O)[C@H](C)C[C@H](C)/C=C/C=C/C=C/1C` [Example 42], for which the IC50 is 3.16 to 31.6 nM with P-Akt (S473), less than 3.16 nM with P-4E-BP1 (T37/46) and less than 1 nM in the assay with P-P70S6K (T389).

On to `CO[C@H]1C[C@@H]2CC[C@@H](C)[C@@](O)(O2)C(=O)C(=O)N2CCCC[C@H]2C(=O)O[C@H]([C@H](C)C[C@@H]2CC[C@@H](OC(=O)N3CCc4nc(N5CCN(CCOCCN6CCN(c7ncc(C(=O)N8CCc9cc(Cn%10nc(-c%11ccc%12oc(N)nc%12c%11)c%11c(N)ncnc%11%10)ccc9C8)cn7)CC6)CC5)ncc4C3)[C@H](OC)C2)C[C@@H](OC)[C@H](C)/C=C(\C)[C@@H](O)[C@@H](OC)C(=O)[C@H](C)C[C@H](C)/C=C/C=C/C=C/1C` [Example 129], for which the figures for the IC50 in the assay with P-Akt (S473), with P-4E-BP1 (T37/46) and in the assay on P-P70S6K (T389) were more than 1000 nM, less than 3.16 nM and less than 1 nM, respectively.

Values taken from patent US10980889B1 (Revolution Medicines, Inc., priority 2018, dated 2021).
